Experimental findings from the NIST ThermoML archive (doi:10.1016/j.fluid.2015.03.053) are described below.

± gives the expanded uncertainty stated by the source.

The conditions of data set [1]: Crystal; DTA.
The nature of data set [2]: Molar enthalpy of transition or fusion. The following applies: Crystal; DSC.

For `CC1=CC(=O)C(C(C)C)=CC1=O` [2-isopropyl-5-methylcyclohexa-2,5-diene-1,4-dione], in data set [1], the Normal melting temperature was determined as 43.6 ± 0.5 °C. Take `O=c1cc(O)c2ccccc2o1` [4-hydroxycoumarin]: the Normal melting temperature in data set [1] is 215.2 ± 0.39 °C.

As for `CC(=O)N[C@@H](CS)C(=O)O` [N-acetyl-L-cysteine], in data set [2], the “Molar enthalpy of transition or fusion” value worked out at 7.67 ± 0.167 kcal/mol.

As to `CC(C)Cc1ccc(C(C)C(=O)O)cc1` (stereo not given) [ibuprofen], the Normal melting temperature in data set [1] came to 74.6 ± 0.39 °C. Same read-out and setting: the figure for `NNC(=O)c1ccncc1` [isonicotinic acid hydrazide] is 172.69 ± 1.1 °C.
